The record followed here is the METLIN SMRT retention time set (Domingo-Almenara et al. 2019).

The nature of this series: gradient 5% acetonitrile 3 min, to 50% in 2 min, to 85% in 15 min, held 3 min, 100 µL/min. The following applies: column: Zorbax Extend-C18 2.1 x 50 mm; eluents: water / acetonitrile, 0.1% formic acid. Summed up:
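In both positive and negative ionization mode, a quadrupole time-of-flight mass spectrometer coupled to HPLC analyzed pure standards run in mixtures of ~100 molecules. The Zorbax Extend-C18 column (2.1 × 50 mm, 1.8 μm) was operated at 100 μL/min with water and acetonitrile, each containing 0.1% formic acid. The dead volume was 40 μL and the dwell volume 900 μL. Retention time came from adduct peaks that were computationally picked and individually inspected by hand.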
In the case of `CCc1nnc(-c2ccc3ccn(CC(=O)NCc4ccccc4OC)c3c2)o1`, the RP-LC retention time turned out to be 851 s.

Consider `CCOC(=O)C1=C(CN(C)Cc2ccccc2)NC(=O)NC1c1ccc(C)cc1` (stereo unspecified), for which the RP-LC retention time was determined as 670 s. Take `Cc1cc(C(=O)N[C@@H]2CN(c3ncccn3)C[C@H]2CO)ccn1`: the RP-LC retention time is 529 s. `CCCn1nnnc1NCc1ccc2c(c1)n(C)c(=O)n2C` had an RP-LC retention time of 638 s.

As to `O=C(NC1COc2ccccc2C1)N1CCOCC1` (stereo unspecified), the RP-LC retention time is 660 s.

Compound `Cc1cnc(C2CN(Cc3ccc(F)cc3F)C2)n1Cc1cccnc1` showed an RP-LC retention time of 544 s. Turning to `Clc1ccc(OCc2nc(-c3cccc(-c4ccn[nH]4)c3)no2)cc1`, the RP-LC retention time was 1010 s. Then `O=S(=O)(c1cc(F)ccc1F)N1CCCCC1c1noc(COCC2CC2)n1` (stereo unspecified), with 1130 s; and `CCc1ccc(CN2CCC3(CC2)CC(O)(COC)CCO3)cc1` (stereo unspecified), with 575 s; and `O=S(=O)(c1cccc(-c2cn3cc(Cl)ccc3n2)c1)N1CCCC1`, with 805 s. Take `Cc1ccc(-n2cc(C(=O)OCc3ccco3)c3ccccc3c2=O)cc1`: the RP-LC retention time was determined as 1170 s. Then `O=C(c1ccc(-c2noc(C3CC3)n2)cc1)N1CCN(c2nc3cccnc3o2)CC1`, with 793 s. For the compound `N#Cc1ccc(-c2csc(NC(=O)c3sc4ccccc4c3Cl)n2)cc1`, the RP-LC retention time came out at 1240 s.

`Cc1noc(-c2nc(-c3ccc(N(C)C)cc3)no2)n1` had an RP-LC retention time of 1030 s.

With `COC(=O)CCC(=O)Nc1nc(-c2ccccc2)cs1`, the RP-LC retention time is 840 s. Then `Cc1ccc(=O)n(CC(=O)NCc2cccs2)n1`, with 591 s; and `O=C(NC1CCCC1)c1nc2ccccn2c1-c1ccc(F)cc1`, with 826 s; and `CC(C)c1nccn1C1CN(C(=O)CCCc2c[nH]c3ccccc23)C1`, with 631 s. Then `Cc1ccc(C)c(NC(=O)C2CCCN(S(=O)(=O)c3c[nH]c(C(=O)N4CCCCCC4)c3)C2)c1` (stereo unspecified), with 923 s. The result for `O=C(CSc1nc(=O)[nH]c2c1CCCC2)N1CCCc2ccccc21` reads 729 s; that for `CC(C)CCNC(=O)c1cn2cc(Cl)ccc2n1`, 825 s; that for `O=S(=O)(C1CC1)N1CCCCC1c1nncn1Cc1ccccc1` (stereo unspecified), 722 s.

On to `CSc1cccc(NC(=O)Cn2nc(C(=O)N3CCOCC3)cc2C2CC2)c1`, for which the RP-LC retention time came to 742 s. Consider `CCN1C(=O)COc2ccc(-c3noc(/C=C/c4ccc(OC)c(OC)c4)n3)cc21`, for which the RP-LC retention time worked out at 1050 s. In turn, `CCCNC(=O)C1CCN(c2ccc(SCC(=O)Nc3ccccc3Br)nn2)CC1` yielded an RP-LC retention time of 670 s. Turning to `O=C(Nc1ccc(-c2nnc3n2CCCC3)cc1)c1ccn[nH]1`, the RP-LC retention time worked out at 595 s. For the compound `CCN1CCN(C(=O)Nc2cccc(C(=O)OC)c2)c2cccnc21`, the RP-LC retention time turned out to be 612 s. `COc1ccc(Cl)cc1C(=O)CN1C(=O)COc2ccccc2C1=O` registered an RP-LC retention time of 988 s. Then `CCNC(=O)c1cc(C)nc2ccc(CC)cc12`, with 582 s; and `O=S(=O)(Cc1ccccc1)N1CCC(Cc2nc(-c3cccnc3)n[nH]2)C1` (stereo unspecified), with 628 s.

In turn, `CC(C)NC(=O)c1cc(N(C)C)nc2ccccc12` yielded an RP-LC retention time of 587 s. The result for `O=c1c2cc(-c3ccc4c(c3)OCO4)nn2ccn1Cc1nc(-c2ccc(F)c(Cl)c2)no1` reads 805 s; that for `Cc1nn(C(=O)c2cccnc2)c(C)c1Sc1ccccc1[N+](=O)[O-]`, 916 s; that for `CCn1c(=O)n(CCN2CCOCC2)c(=O)c2cnc(-c3ccc(Cl)cc3)nc21`, 709 s.

`CNC(=O)Cc1ccc(NS(=O)(=O)Cc2ccc(Cl)cc2)cc1`: the RP-LC retention time is 703 s. The result for `CCOC(=O)c1ccc(NC(=O)C2C(=O)N(C)C3(C)CC2c2ccccc2O3)cc1` (stereo unspecified) reads 1000 s; that for `Cc1nc(-c2csc(S(=O)(=O)N3CCCC(C(=O)Nc4cccc(Cl)c4C)C3)c2)no1` (stereo unspecified), 1020 s. In turn, `CSc1ccc(CNC(=O)Cn2cc(-c3nnco3)c3ccccc32)cc1` displayed an RP-LC retention time of 805 s. Then `Cc1ccccc1NC(=O)CSc1ccc(-n2nccc2C)nn1`, with 869 s; and `CCN1CCCC1CNC(=O)CN1C(=O)CCn2nc(-c3cn(C)c4ccccc34)cc21` (stereo unspecified), with 571 s; and `CC(=O)Nc1ccc(C(=O)Nc2ccccc2N)cc1`, with 629 s. Compound `CCOc1ccc(CNC(=O)C2CCN(S(=O)(=O)c3cn(C)cn3)CC2)cc1` showed an RP-LC retention time of 692 s.

On to `COCc1nncn1C1CCN(S(=O)(=O)c2cccc(OC)c2)CC1`, for which the RP-LC retention time came to 751 s. The result for `CCOc1ccc(S(=O)(=O)N2CCC(C(=O)N3CCN(C)CC3)CC2)cc1C` reads 654 s; that for `Cc1ccc(Nc2c(-c3ccccc3)nc3ccccn23)cc1`, 694 s. The result for `CCOc1ccc(CC(=O)N2CCCC2c2nc(-c3cccc(C)c3)no2)cc1` (stereo unspecified) reads 1120 s. The compound `Cn1cc(C2=CCN(S(=O)(=O)c3ccccc3F)CC2)c2cccnc21` yielded an RP-LC retention time of 944 s.

Take `CCOC(=O)c1ccc(N2C=C(C(=O)N3CCCC3)S(=O)(=O)c3ccc(Cl)cc32)cc1`: the RP-LC retention time stood at 950 s.

The compound `Cc1ccc(S(=O)(=O)N2C[C@@H]3C[C@H]2C[C@@H]3NC(=O)c2ccccc2)cc1Cl` gave an RP-LC retention time of 946 s.

The compound `COc1ccc(Cl)cc1S(=O)(=O)N1CCC2(CC1)c1nccn1CCN2C` came in with an RP-LC retention time of 646 s. Then `CNC(=O)Cc1ccc(NC(=O)NC2CCCCC2)cc1`, with 642 s; and `CC(=O)c1cccc(NC(=O)CN2C(=O)C3CCCCN3c3ccc(C(=O)N4CCCC4)cc32)c1` (stereo unspecified), with 780 s; and `Cc1oc(-c2ccn[nH]2)cc1S(=O)(=O)Nc1ccc(F)c(Cl)c1`, with 852 s. `COc1ccc(S(=O)(=O)N2CCC(Cc3nncn3C)CC2)cc1` gave an RP-LC retention time of 657 s. The result for `Brc1ccc(OCc2nn3c(C4COc5ccccc5O4)nnc3s2)cc1` (stereo unspecified) reads 1040 s; that for `O=C(CSc1ncnc2ccccc12)N1CCCc2ccccc21`, 844 s; that for `Cc1c2cnn(CC(=O)NCc3ccc4c(c3)OCO4)c(=O)c2c(C)n1Cc1cccc(Cl)c1`, 880 s. On to `Cc1cc(OCC(=O)Nc2cc(F)ccc2F)nc(N2CCN(c3ccccc3)CC2)n1`, for which the RP-LC retention time was determined as 900 s.

Compound `COC(=O)C1=CN(CC(=O)NCc2ccc(OC)cc2)S(=O)(=O)N=C1C` registered an RP-LC retention time of 1110 s. `CCc1cc(C(=O)N2CCCCCC2)nc2cc(-c3ccsc3)nn12` showed an RP-LC retention time of 1070 s. The result for `Cc1cc(C)n(CCNS(C)(=O)=O)n1` reads 534 s; that for `CCN1CCN(CCCNC(=O)C2=Cc3cc(OC)ccc3OC2)CC1`, 578 s; that for `NC(=O)C1CCN(C(=O)c2ccc(CN3C(=O)CCn4nc(-c5cccc(Cl)c5)cc43)cc2)CC1`, 700 s.

For `O=C(Cn1c(=O)n(-c2ccccc2)c2ncccc21)NCCCN1CCOCC1`, the RP-LC retention time was 596 s. The result for `COc1ccc(NC(=O)Nc2ccc(-c3cn4ccc(C)nc4n3)cc2)cc1` reads 626 s; that for `Cc1ccc(S(=O)(=O)c2nnn3c2nc(N2CCN(c4ccccn4)CC2)c2ccccc23)cc1`, 711 s. The result for `Cc1ccc(C)c(N2CCN(C(=O)c3cc(-c4ccncc4)cn3C)CC2)c1` reads 710 s; that for `Cc1nnc(NC(=O)CCn2cnc3ccccc3c2=O)s1`, 588 s. Then `CCc1cccc(NC(=O)N2C[C@@H](F)C[C@H]2C(=O)N2CCOCC2)c1`, with 664 s; and `CN(C)c1ccc(C(CNC(=O)c2ccc(Br)o2)N2CCOCC2)cc1` (stereo unspecified), with 626 s.

`CCCCCNC(=O)c1cn(-c2ccc(NC(C)=O)cn2)cn1`: the RP-LC retention time worked out at 690 s. The result for `CCN1C(=O)COc2ccc(-c3nc(NC(=O)c4cccc(Br)c4)sc3C)cc21` reads 1150 s.

Consider `O=C(Cc1csc(NC(=O)c2ccc(=O)[nH]c2)n1)NCc1ccccc1Cl`, for which the RP-LC retention time came to 616 s. The result for `Cn1cnc(S(=O)(=O)N2CCOc3ccc(CN4CCc5ccccc5C4)cc3C2)c1` reads 518 s; that for `O=C(NCc1ccc(Cl)cc1)C1CCCN(c2cnc3nccnc3c2)C1` (stereo unspecified), 731 s. For `C=CCn1c(=O)c2ccccc2n(Cc2nc(-c3cc(OC)cc(OC)c3)no2)c1=O`, the RP-LC retention time turned out to be 1020 s.

For `O=C(Cn1ncc2c(c1=O)N(CC1CC1)C(=O)CS2)NCc1ccccc1Cl`, the RP-LC retention time was found to be 789 s. `CCN1c2ccc(C)cc2C(=O)NC12CCN(C(=O)c1ccc(OC)cc1)CC2` yielded an RP-LC retention time of 810 s. With `COc1ccc(NC(=O)N2CCC(n3cnnc3C3CC3)C2)c(OC)c1` (stereo unspecified), the RP-LC retention time was 610 s. The result for `CCCNC(=O)C1CCN(c2ccc(SCC(=O)Nc3ccc(C)c(F)c3)nn2)CC1` reads 679 s; that for `COc1ccc(-c2cc(C(=O)N3CCN(S(=O)(=O)c4ccc(Cl)cc4)CC3)[nH]n2)cc1`, 909 s.
